Test results reported in PubChem BioAssay AID342 (DTP/NCI, 2004).
Several values for one entry are separate records, joined by “and”; a condition that tells them apart may be missing. Equal values may be shown once.

Tested on: Swiss mice, Sarcoma 180 sc, mean tumor weight T/C
Test: NCI In Vivo Anticancer Drug Screen. Data for tumor model Sarcoma 180 (subcutaneous) in Swiss mice
Conditions: endpoint: mean tumor weight, higher = larger tumour
In short: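 Transplantable tumors were established in mice, compound was given, then survival or tumor size was recorded. The treated value was divided by the vehicle-control value.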

[1] = dose: 75.0 mg/kg/injection, schedule: Q01DX007 (ip), vehicle: carboxymethylcellulose (CMC)
[2] = dose: 125.0 mg/kg/injection, schedule: Q01DX007 (ip), vehicle: carboxymethylcellulose (CMC)

Compound: Cc1ccc(N=NN(C)C)cc1
- T/C (dose: 9.8 mg/kg/injection, schedule: Q01DX007 (ip), vehicle: carboxymethylcellulose (CMC)): 86 % of control
- T/C (dose: 14.8 mg/kg/injection, schedule: Q01DX007 (ip), vehicle: carboxymethylcellulose (CMC)): 70 % of control
- T/C (dose: 15.0 mg/kg/injection, schedule: Q01DX007 (ip), vehicle: carboxymethylcellulose (CMC)): 62 % of control
- T/C (dose: 16.65 mg/kg/injection, schedule: Q#A X014 (ip), vehicle: carboxymethylcellulose (CMC)): 45 % of control
- T/C (dose: 22.2 mg/kg/injection, schedule: Q01DX007 (ip), vehicle: carboxymethylcellulose (CMC)): 49 % of control
- T/C (dose: 25.0 mg/kg/injection, schedule: Q#A X014 (ip), vehicle: carboxymethylcellulose (CMC)): 43 % of control
- T/C (dose: 33.3 mg/kg/injection, schedule: Q01DX007 (ip), vehicle: carboxymethylcellulose (CMC)): 60 % of control
- T/C (dose: 37.5 mg/kg/injection, schedule: Q#A X014 (ip), vehicle: carboxymethylcellulose (CMC)): 30 % of control
- T/C (dose: 56.0 mg/kg/injection, schedule: Q#A X014 (ip), vehicle: carboxymethylcellulose (CMC)): 14 % of control
- T/C (dose: 56.25 mg/kg/injection, schedule: Q#A X014 (ip), vehicle: methylcellulose (MC)): 36 % of control and 38 % of control
- T/C (dose: 115.0 mg/kg/injection, schedule: Q01DX007 (ip), vehicle: carboxymethylcellulose (CMC)): 34 % of control

Compound: CN(C)c1ccc2c(c1)Cc1cc(N=C3C=CC(=O)O3)ccc1-2
- T/C (dose: 48.0 mg/kg/injection, schedule: Q01DX007 (ip), vehicle: other): 83 % of control
- T/C (dose: 73.0 mg/kg/injection, schedule: Q01DX007 (ip), vehicle: other): 101 % of control
- T/C (dose: 166.0 mg/kg/injection, schedule: Q01DX007 (ip), vehicle: other): 40 % of control and 65 % of control

Compound: COc1ccc(-c2cc(=O)c3c(O)c(OC)c(O)cc3o2)cc1
- T/C (dose: 25.0 mg/kg/injection, schedule: Q01DX007 (ip), vehicle: saline): 73 % of control
- T/C (dose: 50.0 mg/kg/injection, schedule: Q01DX007 (ip), vehicle: saline): 79 % of control
- T/C (dose: 100.0 mg/kg/injection, schedule: Q01DX007 (ip), vehicle: saline): 85 % of control

Compound: CO[C@H]1C(=O)C[C@H]2[C@@H]3CC=C4C[C@@H](O)CC[C@]4(C)[C@H]3CC[C@]12C
- T/C (dose: 2.5 mg/kg/injection, schedule: Q01DX007 (sc), vehicle: steriod suspending solution): 92 % of control
- T/C (dose: 5.0 mg/kg/injection, schedule: Q01DX007 (sc), vehicle: steriod suspending solution): 101 % of control
- T/C (dose: 10.0 mg/kg/injection, schedule: Q01DX007 (sc), vehicle: steriod suspending solution): 89 % of control
- T/C (dose: 20.0 mg/kg/injection, schedule: Q01DX007 (sc), vehicle: steriod suspending solution): 94 % of control
- T/C (dose: 40.0 mg/kg/injection, schedule: Q01DX007 (sc), vehicle: steriod suspending solution): 93 % of control and 107 % of control
- T/C (dose: 80.0 mg/kg/injection, schedule: Q01DX007 (sc), vehicle: steriod suspending solution): 116 % of control and 117 % of control

Compound: CCCCCCCCCCCCCCCCC(C(=O)O)C(O)(CC(=O)O)C(=O)O (configuration not stated)
- T/C (dose: 19.0 mg/kg/injection, schedule: Q01DX007 (ip), vehicle: carboxymethylcellulose (CMC)): 81 % of control
- T/C (dose: 37.5 mg/kg/injection, schedule: Q01DX007 (ip), vehicle: carboxymethylcellulose (CMC)): 104 % of control
- T/C [1]: 91 % of control

Compound: O=C1c2ccccc2C(=O)c2c1ccc1c2[nH]c2ccccc21
- T/C (dose: 82.0 mg/kg/injection, schedule: Q01DX007 (ip), vehicle: saline): 48 % of control
- T/C (dose: 125.0 mg/kg/injection, schedule: Q01DX007 (ip), vehicle: saline): 50 % of control
- T/C (dose: 187.0 mg/kg/injection, schedule: Q01DX007 (ip), vehicle: saline): 23 % of control
- T/C (dose: 280.0 mg/kg/injection, schedule: Q01DX007 (ip), vehicle: saline): 42 % of control

Compound: O=C1Nc2ccccc2/C1=C/c1cccnc1
- T/C (dose: 62.5 mg/kg/injection, schedule: Q01DX007 (ip), vehicle: carboxymethylcellulose (CMC)): 100 % of control
- T/C [2]: 79 % of control
- T/C (dose: 250.0 mg/kg/injection, schedule: Q01DX007 (ip), vehicle: carboxymethylcellulose (CMC)): 43 % of control

Compound: O=[N+]([O-])c1ccc(O)c([N+](=O)[O-])c1
- T/C (dose: 1325.0 micrograms/kg/injection, schedule: Q01DX007 (ip), vehicle: carboxymethylcellulose (CMC)): 69 % of control
- T/C (dose: 2650.0 micrograms/kg/injection, schedule: Q01DX007 (ip), vehicle: carboxymethylcellulose (CMC)): 96 % of control
- T/C (dose: 4300.0 micrograms/kg/injection, schedule: Q01DX007 (ip), vehicle: carboxymethylcellulose (CMC)): 71 % of control
- T/C (dose: 6625.0 micrograms/kg/injection, schedule: Q01DX007 (ip), vehicle: carboxymethylcellulose (CMC)): 79 % of control

Compound: CC(=O)OC(C)(C)/C=C/C(=O)[C@](C)(O)[C@H]1[C@H](O)C[C@@]2(C)[C@@H]3CC=C4[C@@H](C[C@H](O)C(=O)C4(C)C)[C@]3(C)C(=O)C[C@]12C
- T/C (dose: 0.4 mg/kg/injection, schedule: Q01DX007 (ip), vehicle: saline): 58 % of control
- T/C (dose: 0.8 mg/kg/injection, schedule: Q01DX007 (ip), vehicle: saline): 84 % of control

Compound: Nc1nc2n[nH]nc2c(=O)[nH]1
- T/C (dose: 12.5 mg/kg/injection, schedule: Q01DX007 (ip), vehicle: other): 118 % of control
- T/C (dose: 12.5 mg/kg/injection, schedule: Q#A X014 (ip), vehicle: other): 101 % of control
- T/C (dose: 15.75 mg/kg/injection, schedule: Q01DX007 (ip), vehicle: other): 78 % of control
- T/C (dose: 25.0 mg/kg/injection, schedule: Q01DX007 (ip), vehicle: other): 85 % of control
- T/C (dose: 25.0 mg/kg/injection, schedule: Q#A X014 (ip), vehicle: other): 68 % of control
- T/C (dose: 31.5 mg/kg/injection, schedule: Q01DX007 (ip), vehicle: carboxymethylcellulose (CMC)): 109 % of control
- T/C (dose: 31.5 mg/kg/injection, schedule: Q01DX007 (ip), vehicle: other): 69 % of control
- T/C (dose: 31.5 mg/kg/injection, schedule: Q01DX007 (ip), vehicle: water): 43 % of control
- T/C (dose: 50.0 mg/kg/injection, schedule: Q01DX007 (ip), vehicle: other): 70 % of control
- T/C (dose: 50.0 mg/kg/injection, schedule: Q#A X014 (ip), vehicle: other): 38 % of control
- T/C (dose: 50.4 mg/kg/injection, schedule: Q01DX007 (ip), vehicle: other): 84 % of control
- T/C (dose: 63.0 mg/kg/injection, schedule: Q01DX007 (ip), vehicle: carboxymethylcellulose (CMC)): 58 % of control
- T/C (dose: 63.0 mg/kg/injection, schedule: Q01DX007 (ip), vehicle: other): 54 % of control and 60 % of control
- T/C (dose: 63.0 mg/kg/injection, schedule: Q01DX007 (ip), vehicle: water): 57 % of control
- T/C (dose: 84.0 mg/kg/injection, schedule: Q01DX007 (ip), vehicle: other): 63 % of control
- T/C (dose: 94.5 mg/kg/injection, schedule: Q01DX007 (ip), vehicle: carboxymethylcellulose (CMC)): 54 % of control
- T/C (dose: 94.5 mg/kg/injection, schedule: Q01DX007 (ip), vehicle: water): 15 % of control
- T/C (dose: 100.0 mg/kg/injection, schedule: Q01DX007 (ip), vehicle: other): 95 % of control and 116 % of control
- T/C (dose: 100.0 mg/kg/injection, schedule: Q#A X014 (ip), vehicle: other): 64 % of control
- T/C (dose: 126.0 mg/kg/injection, schedule: Q01DX007 (ip), vehicle: carboxymethylcellulose (CMC)): 39 % of control
- T/C (dose: 126.0 mg/kg/injection, schedule: Q01DX007 (ip), vehicle: other): 33 % of control
- T/C (dose: 126.0 mg/kg/injection, schedule: Q01DX007 (ip), vehicle: water): 18 % of control
- T/C (dose: 200.0 mg/kg/injection, schedule: Q01DX007 (ip), vehicle: other): 70 % of control
- T/C (dose: 400.0 mg/kg/injection, schedule: Q01DX007 (ip), vehicle: other): 52 % of control

Compound: Clc1c(Cl)c(Cl)c(SCc2ccccc2)c(Cl)c1Cl
- T/C (dose: 111.0 mg/kg/injection, schedule: Q#A X014 (ip), vehicle: saline): 83 % of control
- T/C (dose: 166.5 mg/kg/injection, schedule: Q#A X014 (ip), vehicle: saline): 70 % of control
- T/C (dose: 250.0 mg/kg/injection, schedule: Q#A X014 (ip), vehicle: saline): 42 % of control
- T/C (dose: 375.0 mg/kg/injection, schedule: Q#A X014 (ip), vehicle: saline): 38 % of control

Compound: CCCCC(=O)OCC1OC(n2cnc3c(=S)nc[nH]c32)C(OC(=O)CCCC)C1OC(=O)CCCC (configuration not stated)
- T/C [1]: 69 % of control
- T/C [2]: 34 % of control
- T/C (dose: 220.0 mg/kg/injection, schedule: Q01DX007 (ip), vehicle: carboxymethylcellulose (CMC)): 96 % of control
- T/C (dose: 335.0 mg/kg/injection, schedule: Q01DX007 (ip), vehicle: carboxymethylcellulose (CMC)): 81 % of control
- T/C (dose: 750.0 mg/kg/injection, schedule: Q01DX007 (ip), vehicle: carboxymethylcellulose (CMC)): 43 % of control
